Biological target: T1, human GPR84 receptor (Homo sapiens, UniProt Q9NQS5)
T1 construct: frozen aliquots prepared by acCELLerate; host or cells: CHO-K1
Test: cAMP HTRF assay for identification of cellular GPR84 antagonists
Format: cell-based
Details: CHO-K1 cells stably expressing human GPR84; Forskolin + agonist 6-OAU (EC80); average or median values
Outline: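 Forskolin-stimulated CHO-K1 cells stably expressing human GPR84, agonist-suppressed cAMP measured by HTRF (665/620 ratio) after lysis. Compounds at 11 concentrations, 20 μM to 0.07 nM, duplicate; normalized to DMSO and no-agonist controls; IC50 by 4-parameter fit.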

T1 sequence (Q9NQS5 whole entry): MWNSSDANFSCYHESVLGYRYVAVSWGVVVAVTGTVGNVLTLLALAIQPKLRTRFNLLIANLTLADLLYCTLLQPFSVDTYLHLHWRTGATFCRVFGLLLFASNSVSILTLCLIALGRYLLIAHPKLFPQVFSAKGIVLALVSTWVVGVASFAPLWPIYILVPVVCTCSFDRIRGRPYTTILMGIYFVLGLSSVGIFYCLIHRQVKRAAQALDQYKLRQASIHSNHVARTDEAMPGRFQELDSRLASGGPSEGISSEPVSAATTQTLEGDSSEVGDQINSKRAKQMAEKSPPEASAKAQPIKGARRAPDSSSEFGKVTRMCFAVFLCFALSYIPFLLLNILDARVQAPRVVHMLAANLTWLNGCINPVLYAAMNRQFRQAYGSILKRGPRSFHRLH

Row | Structure (SMILES) | IC50
1 | Cc1c(C(=O)NC[C@@H]2COCCO2)oc2c1-c1nn(C[C@H]3CCOC3)cc1CC2 [Example 112, N-[(2R)-1,4-dioxan-2-ylmethyl]-8-methyl-2-[(3R)-tetrahydrofuran-3-ylmethyl]-4,5-dihydro-2H-furo[2,3-g]indazole-7-carboxamide] | 320 nM
2 | Cc1c(C(=O)NC[C@@H]2CCCO2)oc2c1-c1nn(CC3CC3)cc1CC2 [Example 48, 2-(cyclopropylmethyl)-8-methyl-N-[(2S)-tetrahydrofuran-2-ylmethyl]-4,5-dihydro-2H-furo[2,3-g]indazole-7-carboxamide] | 97 nM
3 | C[C@@H]1Cc2oc(C(=O)NCc3ncccn3)c(C(F)(F)F)c2-c2nn(C[C@H]3COCCO3)cc21 (single isomer, unassigned) [Example 304] | 13 nM
4 | O=C(NC[C@@H]1CCCO1)c1oc2c(c1C(F)(F)F)-c1nn(C[C@H]3COCCO3)cc1CC2 [Example 221, 2-{[(2S)-1,4-dioxan-2-yl]methyl}-N-{[(2S)-oxolan-2-yl]methyl}-8-(trifluoromethyl)-4,5-dihydro-2H-furo[2,3-g]indazole-7-carboxamide] | 8 nM
5 | Cc1c(C(=O)NC[C@@H]2CCCO2)oc2c1-c1nn(Cc3ccccn3)cc1C(C)(C)C2 [Example 148, 4,4,8-trimethyl-2-(pyridin-2-ylmethyl)-N-[(2S)-tetrahydrofuran-2-ylmethyl]-4,5-dihydro-2H-furo[2,3-g]indazole-7-carboxamide] | 35 nM
6 | C[C@@H]1Cc2oc(C(=O)NCc3cnccn3)c(C(F)(F)F)c2-c2nn(C[C@H]3COCCO3)cc21 (single isomer, unassigned) [Example 260, (4R or 4S)-2-{[(2S)-1,4-dioxan-2-yl]methyl}-4-methyl-N-[(pyrazin-2-yl)methyl]-8-(trifluoromethyl)-4,5-dihydro-2H-furo[2,3-g]indazole-7-carboxamide] | 24 nM
7 | Cc1c(C(=O)NC[C@@H]2CCCO2)oc2c1-c1nn(CCN)cc1CC2 [Example 160, 2-(2-aminoethyl)-8-methyl-N-[(2S)-tetrahydrofuran-2-ylmethyl]-4,5-dihydro-2H-furo[2,3-g]indazole-7-carboxamide] | 2540 nM
8 | Cc1ncc(CNC(=O)c2oc3c(c2C(F)(F)F)-c2nn(C[C@H]4COCCO4)cc2[C@H](C)C3)cn1 (single isomer, unassigned) [Example 302, (4R or 4S)-2-{[(2S)-1,4-dioxan-2-yl]methyl}-4-methyl-N-[(2-methylpyrimidin-5-yl)methyl]-8-(trifluoromethyl)-4,5-dihydro-2H-furo[2,3-g]indazole-7-carboxamide] | 1510 nM
9 | CC1Cc2oc(C(=O)NC[C@@H]3COCCO3)c(C(F)(F)F)c2-c2nn(C[C@H]3COCCO3)cc21 (mixture of isomers) [Example 254, (4±)-N-{[(2R)-1,4-dioxan-2-yl]methyl}-2-{[(2S)-1,4-dioxan-2-yl]methyl}-4-methyl-8-(trifluoromethyl)-4,5-dihydro-2H-furo[2,3-g]indazole-7-carboxamide] | 6 nM
10 | Cc1c(C(=O)NCC2CC3(CC3)CO2)oc2c1-c1nn(C[C@H]3COCCO3)cc1C1(CC1)C2 (mixture of isomers) [Example 200] | 111 nM
11 | C[C@@H]1Cc2oc(C(=O)NC[C@@H]3CCCO3)c(C(F)(F)F)c2-c2nn(CC3CCN(C(=O)C4(C)CC4)CC3)cc21 (single isomer, unassigned) [Example 298, (4R or 4S)-4-methyl-2-{[1-(1-methylcyclopropane-1-carbonyl)piperidin-4-yl]methyl}-N-{[(2S)-oxolan-2-yl]methyl}-8-(trifluoromethyl)-4,5-dihydro-2H-furo[2,3-g]indazole-7-carboxamide] | 9 nM
12 | C[C@@H]1Cc2oc(C(=O)NC[C@@H]3COCCO3)c(C(F)(F)F)c2-c2nn(CC3CCN(C(=O)C4CC4)CC3)cc21 (single isomer, unassigned) [Example 291, (4R or 4S)-2-{[1-(cyclopropanecarbonyl)piperidin-4-yl]methyl}-N-{[(2R)-1,4-dioxan-2-yl]methyl}-4-methyl-8-(trifluoromethyl)-4,5-dihydro-2H-furo[2,3-g]indazole-7-carboxamide] | 5 nM
13 | Cc1c(C(=O)NC[C@H]2CCC3(COC3)O2)oc2c1-c1nn(C[C@H]3COCCO3)cc1C1(CC1)C2 (single isomer, unassigned) [Example 201-1] | 683 nM
14 | Cc1c(C(=O)NC[C@@H]2CCCO2)oc2c1-c1nn(C[C@H]3CN(C)CCO3)cc1CC2 [Example 101, 8-methyl-2-{[(2R)-4-methylmorpholin-2-yl]methyl}-N-[(2S)-tetrahydrofuran-2-ylmethyl]-4,5-dihydro-2H-furo[2,3-g]indazole-7-carboxamide] | 1540 nM
15 | Cc1ccc(Cn2cc3c(n2)-c2c(oc(C(=O)NC[C@@H]4CCCO4)c2C(F)(F)F)CC3C)nc1 (mixture of isomers) [Example 251, (4±)-4-methyl-2-[(5-methyl-2-pyridyl)methyl]-N-[[(2S)-tetrahydrofuran-2-yl]methyl]-8-(trifluoromethyl)-4,5-dihydrofuro[2,3-g]indazole-7-carboxamide] | 9 nM
16 | Cc1c(C(=O)NC[C@@H]2CCCO2)oc2c1-c1nn(Cc3ncc(F)cc3Cl)cc1CC2 [Example 58, 2-[(3-chloro-5-fluoropyridin-2-yl)methyl]-8-methyl-N-[(2S)-tetrahydrofuran-2-ylmethyl]-4,5-dihydro-2H-furo[2,3-g]indazole-7-carboxamide] | 240 nM
17 | Cc1c(C(=O)NC[C@@H]2CCCO2)oc2c1-c1nn(C[C@@H]3CN(C)CCO3)cc1CC2 [Example 103, 8-methyl-2-{[(2S)-4-methylmorpholin-2-yl]methyl}-N-[(2S)-tetrahydrofuran-2-ylmethyl]-4,5-dihydro-2H-furo[2,3-g]indazole-7-carboxamide] | 170 nM
18 | Cc1c(C(=O)NCC2CC(F)(F)CO2)oc2c1-c1nn(C[C@H]3COCCO3)cc1C1(CC1)C2 (mixture of isomers) [Example 197] | 98 nM
19 | O=C(NCC1CC(F)(F)CO1)c1oc2c(c1C(F)(F)F)-c1nn(C[C@H]3COCCO3)cc1CC2 (mixture of isomers) [Example 222, N-{[(2±)-4,4-difluorooxolan-2-yl]methyl}-2-{[(2S)-1,4-dioxan-2-yl]methyl}-8-(trifluoromethyl)-4,5-dihydro-2H-furo[2,3-g]indazole-7-carboxamide] | 20 nM

Next, values leading:

Row | IC50 | Structure (SMILES)
20 | 1160 nM | Cc1c(C(=O)NC[C@H]2CCCO2)oc2c1-c1nn(Cc3ccccn3)cc1CC2 [Example 3-1, 8-methyl-2-(pyridin-2-ylmethyl)-N-[(2R)-tetrahydrofuran-2-ylmethyl]-4,5-dihydro-2H-furo[2,3-g]indazole-7-carboxamide]
21 | 32 nM | Cc1ccc(CNC(=O)c2oc3c(c2C)-c2nn(CC4COc5ncccc5O4)cc2CC3)cc1 (stereo not shown) [Example 53]
22 | 960 nM | Cc1c(C(=O)NCC2CCC(=O)O2)oc2c1-c1nn(Cc3ccccn3)cc1CC2 (racemic) [Example 39, 8-methyl-N-{[(2R/S)-5-oxotetrahydrofuran-2-yl]methyl}-2-(pyridin-2-ylmethyl)-4,5-dihydro-2H-furo[2,3-g]indazole-7-carboxamide]
23 | 28 nM | Cc1ccc(Cn2cc3c(n2)-c2c(oc(C(=O)NC[C@@H]4CCCO4)c2C)CC3)nc1 [Example 64, 8-methyl-2-[(5-methylpyridin-2-yl)methyl]-N-[(2S)-tetrahydrofuran-2-ylmethyl]-4,5-dihydro-2H-furo[2,3-g]indazole-7-carboxamide]
24 | 551 nM | Cc1c(C(=O)NC[C@@H]2COCCO2)oc2c1-c1nn(Cc3cccnn3)cc1CC2 [Example 185]
25 | 1960 nM | Cc1c(C(=O)NC[C@@H]2COCCO2)oc2c1-c1nn(CC3CNC3)cc1CC2 [Example 159, 2-(azetidin-3-ylmethyl)-N-[(2R)-1,4-dioxan-2-ylmethyl]-8-methyl-4,5-dihydro-2H-furo[2,3-g]indazole-7-carboxamide]
26 | 28 nM | O=C(NC[C@@H]1COCCO1)c1oc2c(c1C(F)(F)F)-c1nn(Cc3ccccn3)cc1CC2 [Example 116, N-[(2R)-1,4-dioxan-2-ylmethyl]-2-(pyridin-2-ylmethyl)-8-(trifluoromethyl)-4,5-dihydro-2H-furo[2,3-g]indazole-7-carboxamide]
27 | 168 nM | Cc1c(C(=O)NC[C@@H]2CCCO2)oc2c1-c1nn(Cc3cc(F)ccn3)cc1CC2 [Example 182]
28 | 1420 nM | Cc1c(C(=O)NCC2CN(C)CCO2)oc2c1-c1nn(Cc3ccccn3)cc1CC2 (single isomer, unassigned) [Example 38-1]
29 | 24 nM | O=C(NCc1ncco1)c1oc2c(c1C(F)(F)F)-c1nn(Cc3ccccn3)cc1CC2 [Example 118, N-(1,3-oxazol-2-ylmethyl)-2-(pyridin-2-ylmethyl)-8-(trifluoromethyl)-4,5-dihydro-2H-furo[2,3-g]indazole-7-carboxamide]
30 | 447 nM | Cc1c(C(=O)NC[C@@H]2CCCO2)oc2c1-c1nn(Cc3cccnn3)cc1CC2 [Example 184]
31 | 830 nM | Cc1c(C(=O)NC[C@H]2COCCO2)oc2c1-c1nn(Cc3ccccn3)cc1CC2 [Example 19-2, N-{[(2S)-1,4-dioxan-2-yl]methyl}-8-methyl-2-[(pyridin-2-yl)methyl]-4,5-dihydro-2H-furo[2,3-g]indazole-7-carboxamide]
32 | 660 nM | Cc1cccc(Cn2cc3c(n2)-c2c(oc(C(=O)NCC4CCCO4)c2C)CC3)n1 (single isomer, unassigned) [Example 66-2]
33 | 8310 nM | Cc1ccc(Cn2cc3c(n2)-c2c(oc(C(=O)N[C@@H]4CCOC4)c2C)CC3)nc1 [Example 318, 8-methyl-2-[(5-methylpyridin-2-yl)methyl]-N-[(3R)-oxolan-3-yl]-4,5-dihydro-2H-furo[2,3-g]indazole-7-carboxamide]
34 | 280 nM | Cc1c(C(=O)NCc2ccn(C)n2)oc2c1-c1nn(Cc3ccccn3)cc1CC2 [Example 34, 8-methyl-N-[(1-methyl-1H-pyrazol-3-yl)methyl]-2-(pyridin-2-ylmethyl)-4,5-dihydro-2H-furo[2,3-g]indazole-7-carboxamide]
